In US6476008B1, “Use of diphosphonic acids or the physiologically acceptable salts or esters thereof in the preventive treatment of after-effects resulting from enlargement or replacement of the bladder” (Roche Diagnostics GmbH, priority 1997, dated 2002):

What was measured:
[1] = tested on: female Sprague-Dawley rats augmented with excluded sigma; assay: Prevention of osteopenia after bladder augmentation plasty, bone density by DEXA; type: in vivo, rat; details: daily s.c. ibandronic acid up to 20 μg P/kg, 4 months, monthly DEXA
Source text: Preventive effect of diphosphonates before the occurrence of osteopenia after augmentation plasty. Groups of 12 female Sprague-Dawley rats (6-8 week old, about […] body weight) were provided with stomach and ileum augmentation plasties and 12 animals were dummy-operated. At the same time, 24 animals were augmented with excluded sigma and divided at random into two groups, one group daily receiving a subcutaneous application of 0.9% NaCl (control) and the other group a daily subcutaneous application of ibandronic acid in the form of an aqueous solution in a dose up to 20 μg P/kg. The operative configuration of the augmentation plasties was after Lauvetz et al (J. Urol. 154: 899-902, 1995). The test period was 4 months, corresponding to about 4 years of human life (E. Grimm, Amer. J. Dig Dis. 7: 17-20, 1962).

[2] = tested on: rats with chronic kidney insufficiency and augmentation using gastrointestinal segments; assay: Chronic kidney insufficiency plus augmentation plasty, bone mass; type: in vivo, rat; details: rats with CNI (5/6 nephrectomy) and augmentation plasty, ibandronate administration
Source text: In order to increase the clinical relevance of the results, the test procedure of Example 2 was repeated on rats with chronic kidney insufficiency. This test arrangement is based on a frequent situation among human beings in which a bladder previously damaged by an existing disturbance in urine transport (reflux or obstruction) leads to kidney insufficiency as a secondary result. It is known that kidney insufficiency in itself results in a disturbance in bone mineralisation (renal osteopathy), so that the need for a bladder extension plasty using segments of intestine further increases the risk of disturbed mineralisation. Kidney insufficiency was induced by 5/6 nephrectomy (compare Example 2). The other test procedure was as in Example 1.

SMILES: CCCCCN(C)CCC(O)(P(=O)(O)O)P(=O)(O)O [ibandronate, 1-hydroxy-3-(N-methyl-N-pentyl)aminopropylidene-1,1-diphosphonic acid]
- reduction in bone mass (DEXA bone density, lumbar vertebrae) [1]: no reduction in bone mass
- reduction in bone mass [2]: reduction in bone mass was prevented
